Data on 13 molecules can be found in patent US12421211B2, “Heterocyclic compounds” (Hoffmann-La Roche Inc., priority 2021, dated 2025).

This test deals with Acinetobacter baumannii ATCC17961. Put plainly: Antimicrobial susceptibility testing: 90% growth inhibitory concentration (IC90) determination. The class given is cell-based. As to conditions: Acinetobacter baumannii, ATCC17961, 16 h, read-out: ATCC 17961 IC90. On the procedure:
Assay Procedures Antimicrobial Susceptibility Testing: 90% Growth Inhibitory Concentration (IC90) Determination
The in vitro antimicrobial activity of the compounds was determined according to the following procedure:
The assay used a 10-points Iso-Sensitest broth medium to measure quantitatively the in vitro activity of the compounds against Acinetobacter baumannii ATCC17961.
Stock compounds in DMSO were serially twofold diluted (e.g. range from 50 to 0.097 μM final concentration) in 384 wells microtiter plates and inoculated with 49 μl the bacterial suspension in Iso-Sensitest medium to have a final cell concentration of ˜5×10^(5) CFU/ml in a final volume/well of 50 ul/well. Microtiter plates were incubated at 35±2° C.
Bacterial cell growth was determined with the measurement of optical density at λ=600 nm each 20 minutes over a time course of 16h. Growth inhibition was calculated during the logarithmic growth of the bacterial cells with determination of the concentration inhibiting 50% (IC50) and 90% (IC90) of the growth.
Table 1 provides the 90% growth inhibitory concentrations (IC90) in micromoles per liter of the compounds of present invention obtained against the strain Acinetobacter baumannii ATCC17961.

Where [1] appears, read: 90% growth inhibitory concentration, Acinetobacter baumannii ATCC17961, Iso-Sensitest broth, OD 600 nm over 16 h.

Structures are written as SMILES. Where a name gives a salt, the structure may show the parent alone. Read-outs that look alike come from different tables or passages of the source.

For orientation: IC90 means the point of the concentration-response curve where the effect stands at 90%. As for `COCCn1nc(C)c(-c2ccc(-c3cnc(C(=O)Nc4ccc(C(=O)NC5[C@H]6CN(C(=O)N[C@@H]7C[N+](C)(C)C[C@H]7O)C[C@@H]56)c(Cl)c4)n3C)c(F)c2F)c1C` (mixture of isomers) [Example F60, rac-(1S,5R)-6-[[2-chloro-4-[[5-[2,3-difluoro-4-[1-(2-methoxyethyl)-3,5-dimethyl-pyrazol-4-yl]phenyl]-1-methyl-imidazole-2-carbonyl]amino]benzoyl]amino]-N-[(3R,4R)-4-hydroxy-1,1-dimethyl-pyrrolidin-1-ium-3-yl]-3-azabicyclo[3.1.0]hexane-3-carboxamide; formate], under setting [1], the IC90 worked out at 150 nM. Still for that read-out and setting: the same measure for `COCCn1nc(C)c(-c2ccc(-c3cnc(C(=O)Nc4ccc(C(=O)N5CCN(C(=O)[C@@H]6C[C@@H](O)C[N+]6(C)C)CC5)c(Cl)c4)n3C)c(F)c2F)c1C` (racemic) [Example D3, N-[3-chloro-4-[4-[(2S,4R)-4-hydroxy-1,1-dimethyl-pyrrolidin-1-ium-2-carbonyl]piperazine-1-carbonyl]phenyl]-5-[2,3-difluoro-4-[1-(2-methoxyethyl)-3,5-dimethyl-pyrazol-4-yl]phenyl]-1-methyl-imidazole-2-carboxamide; formate]: 390 nM. Turning to `COCCn1cc(-c2ccc(-c3cnc(C(=O)Nc4ccc(C(=O)N5CCN(C(=O)C6CC[N+](C)(C)CC6)CC5)c(Cl)c4)n3C)c(F)c2F)c(C)n1` [Example A1, N-[3-chloro-4-[4-(1,1-dimethylpiperidin-1-ium-4-carbonyl)piperazine-1-carbonyl]phenyl]-5-[2,3-difluoro-4-[l-(2-methoxyethyl)-3-methyl-pyrazol-4-yl]phenyl]-1-methyl-imidazole-2-carboxamide; formate], the IC90 stood at 120 nM. Consider `COCCn1nc(C)c(-c2ccc(-c3cnc(C(=O)Nc4ccc(C(=O)N5CCN(C(=O)C6CC[N+](C)(C)CC6)CC5)c(Cl)c4)n3C)c(F)c2F)c1C` [Example A2, N-[3-chloro-4-[4-(1,1-dimethylpiperidin-1-ium-4-carbonyl)piperazine-1-carbonyl]phenyl]-5-[2,3-difluoro-4-[1-(2-methoxyethyl)-3,5-dimethyl-pyrazol-4-yl]phenyl]-1-methyl-imidazole-2-carboxamide; formate], for which the IC90 under setting [1] was determined as 230 nM. On to `COCCn1nc(C)c(-c2ccc(-c3cnc(C(=O)Nc4ccc(C(=O)N5CCN(C(=O)C6CC[N+](C)(C)CC6)CC5)c(Cl)c4)n3C)cc2)c1C` [Example A3, N-[3-chloro-4-[4-(1,1-dimethylpiperidin-1-ium-4-carbonyl)piperazine-1-carbonyl]phenyl]-5-[4-[1-(2-methoxyethyl)-3,5-dimethyl-pyrazol-4-yl]phenyl]-1-methyl-imidazole-2-carboxamide; formate], for which, under setting [1], the 90% effect concentration (IC90) amounted to 230 nM. Same read-out and setting: the same measure for `COCCn1ncc(-c2ccc(-c3cnc(C(=O)Nc4ccc(C(=O)N5CCN(C(=O)C6CC[N+](C)(C)CC6)CC5)c(Cl)c4)n3C)c(F)c2F)c1C` [Example A4, N-[3-chloro-4-[4-(1,1-dimethylpiperidin-1-ium-4-carbonyl)piperazine-1-carbonyl]phenyl]-5-[2,3-difluoro-4-[1-(2-methoxyethyl)-5-methyl-pyrazol-4-yl]phenyl]-1-methyl-imidazole-2-carboxamide; formate]: 110 nM.

Consider `COCCn1ncc(-c2ccc(-c3cnc(C(=O)Nc4ccc(C(=O)N5CCN(C(=O)C[C@@H]6CC[N+](C)(C)C6)CC5)c(Cl)c4)n3C)c(F)c2F)c1C` [Example A5, N-[3-chloro-4-[4-[2-[(3S)-1,1-dimethylpyrrolidin-1-ium-3-yl]acetyl]piperazine-1-carbonyl]phenyl]-5-[2,3-difluoro-4-[1-(2-methoxyethyl)-5-methyl-pyrazol-4-yl]phenyl]-1-methyl-imidazole-2-carboxamide; formate], for which the concentration for an effect of 90% (IC90) under setting [1] was determined as 55 nM.

`COCCn1ncc(-c2ccc(-c3cnc(C(=O)Nc4ccc(C(=O)N5CCN(C(=O)C[N+](C)(C)C)CC5)c(Cl)c4)n3C)c(F)c2F)c1C` [Example A8, [2-[4-[2-chloro-4-[[5-[2,3-difluoro-4-[1-(2-methoxyethyl)-5-methyl-pyrazol-4-yl]phenyl]-1-methyl-imidazole-2-carbonyl]amino]benzoyl]piperazin-1-yl]-2-oxo-ethyl]-trimethyl-ammonium; 2,2,2-trifluoroacetate]: the IC90 stood at 53 nM. On the same count and under the same terms, the same measure for `COCCn1ncc(-c2ccc(-c3cnc(C(=O)Nc4ccc(C(=O)NCC5CCN(C(=O)C[N+](C)(C)C)CC5)c(Cl)c4)n3C)c(F)c2F)c1C` [Example A9, [2-[4-[[[2-chloro-4-[[5-[2,3-difluoro-4-[1-(2-methoxyethyl)-5-methyl-pyrazol-4-yl]phenyl]-1-methyl-imidazole-2-carbonyl]amino]benzoyl]amino]methyl]-1-piperidyl]-2-oxo-ethyl]-trimethyl-ammonium; 2,2,2-trifluoroacetate]: 160 nM. Take `COCCn1ncc(-c2ccc(-c3cnc(C(=O)Nc4ccc(C(=O)N5CCC(C(=O)N6CC[N+](C)(C)CC6)CC5)c(Cl)c4)n3C)c(F)c2F)c1C` [Example A10, N-[3-chloro-4-[4-(4,4-dimethylpiperazin-4-ium-1-carbonyl)piperidine-1-carbonyl]phenyl]-5-[2,3-difluoro-4-[1-(2-methoxyethyl)-5-methyl-pyrazol-4-yl]phenyl]-1-methyl-imidazole-2-carboxamide; formate]: the IC90 under setting [1] was 98 nM. As for `COCCn1cc(-c2ccc(-c3cnc(C(=O)Nc4ccc(C(=O)N5CCN(C(=O)[C@@H]6CC(CO)C[N+]6(C)C)CC5)c(Cl)c4)n3C)c(F)c2F)c(C)n1` (stereo partly drawn) [Example A12, N-[3-chloro-4-[4-[(2S)-4-(hydroxymethyl)-1,1-dimethyl-pyrrolidin-1-ium-2-carbonyl]piperazine-1-carbonyl]phenyl]-5-[2,3-difluoro-4-[1-(2-methoxyethyl)-3-methyl-pyrazol-4-yl]phenyl]-1-methyl-imidazole-2-carboxamide; formate], the 90% effect concentration (IC90) under setting [1] stood at 210 nM. As for `COCCn1ncc(-c2ccc(-c3cnc(C(=O)Nc4ccc(C(=O)N5CCN(C(=O)C6(OC)CC[N+](C)(C)CC6)CC5)c(Cl)c4)n3C)c(F)c2F)c1C` [Example A13, N-[3-chloro-4-[4-(4-methoxy-1,1-dimethyl-piperidin-1-ium-4-carbonyl)piperazine-1-carbonyl]phenyl]-5-[2,3-difluoro-4-[1-(2-methoxyethyl)-5-methyl-pyrazol-4-yl]phenyl]-1-methyl-imidazole-2-carboxamide; formate], the IC90 under setting [1] stood at 110 nM. With `COCCn1cc(-c2ccc(-c3cnc(C(=O)Nc4ccc(C(=O)N5CCN(C(=O)C6CC[N+](C)(CC(N)=O)CC6)CC5)c(Cl)c4)n3C)c(F)c2F)c(C)n1` (stereo not shown) [Example B1, N-[4-[4-[1-(2-amino-2-oxo-ethyl)-1-methyl-piperidin-1-ium-4-carbonyl]piperazine-1-carbonyl]-3-chloro-phenyl]-5-[2,3-difluoro-4-[1-(2-methoxyethyl)-3-methyl-pyrazol-4-yl]phenyl]-1-methyl-imidazole-2-carboxamide; formate], the 90% effect concentration (IC90) is 190 nM.
